Literature values, collected in patent US20200261422A1, “METHODS FOR […] […] HUMAN PATIENTS USING I[…]-2 […]” (Massachusetts Institute of Technology, priority 2019, published 2020).

Key:
[1] = in vivo
[2] = test system: effects of dexmedetomidine (α2 adrenergic receptor agonist); conditions: intramuscular injection; dexmedetomidine e.g. DEXDOMITOR and DEXDOMITOR 0.1

SMILES	terminal elimination half-life [1]	time to reverse the effects of dexmedetomidine [2] [min]
Cc1cccc([C@H](C)c2cnc[nH]2)c1C [dexmedetomidine, Dexmedetomidine]	about 2 hours	–
CCC1(c2cnc[nH]2)Cc2ccccc2C1 [atipamezole, 4-(2-ethyl-2,3-dihydro-1H-inden-2-yl)-1H-imidazole]	–	5 to 10
